{"source": "PubChem BioAssay (NCI)", "assay_in_all_cases": "NCI-60 cell line screen, 48 h", "key": {"CCRF-CEM leukemia": {"tested_on": "CCRF-CEM leukemia"}, "HCT-116 colon": {"tested_on": "HCT-116 colon"}, "K-562 leukemia": {"tested_on": "K-562 leukemia"}, "KM12 colon": {"tested_on": "KM12 colon"}, "SF-268 CNS": {"tested_on": "SF-268 CNS"}, "SN12C renal": {"tested_on": "SN12C renal"}, "SNB-75 CNS": {"tested_on": "SNB-75 CNS"}, "SR leukemia": {"tested_on": "SR leukemia"}, "UACC-62 melanoma": {"tested_on": "UACC-62 melanoma"}, "UO-31 renal": {"tested_on": "UO-31 renal"}}, "note": "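Step 1: Grow cells in 96-well plates. Step 2: Expose to compound for 48 hours at 5 concentrations. Step 3: Interpolate endpoints linearly; if unreached, use highest concentration. GI50 marks 50% less growth. TGI denotes the concentration required for complete inhibition of growth.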"}
{"compound": "O=S(OC12CC3CC(CC(C3)C1)C2)c1cc(Cl)cc(Cl)c1OCc1ccccc1", "note": "(stereo unspecified)", "values": [{"measurement": "TGI", "setting": "CCRF-CEM leukemia", "value": "> 100", "unit": "µM"}, {"measurement": "TGI", "setting": "HCT-116 colon", "value": "> 100", "unit": "µM"}, {"measurement": "TGI", "setting": "K-562 leukemia", "value": "> 100", "unit": "µM"}, {"measurement": "TGI", "setting": "KM12 colon", "value": "> 100", "unit": "µM"}, {"measurement": "TGI", "setting": "SF-268 CNS", "value": "> 100", "unit": "µM"}, {"measurement": "TGI", "setting": "SN12C renal", "value": "> 100", "unit": "µM"}, {"measurement": "TGI", "setting": "SNB-75 CNS", "value": "> 100", "unit": "µM"}, {"measurement": "TGI", "setting": "SR leukemia", "value": "> 100", "unit": "µM"}, {"measurement": "TGI", "setting": "UACC-62 melanoma", "value": "> 100", "unit": "µM"}, {"measurement": "TGI", "setting": "UO-31 renal", "value": "> 100", "unit": "µM"}]}
{"compound": "Nc1ccccc1.[C-]#[O+].[C-]#[O+].[C-]#[O+].[C-]#[O+].[C-]#[O+].[Cr]", "values": [{"measurement": "GI50", "setting": "CCRF-CEM leukemia", "value": 2.93, "unit": "µM"}, {"measurement": "TGI", "setting": "CCRF-CEM leukemia", "value": "> 10", "unit": "µM"}, {"measurement": "GI50", "setting": "HCT-116 colon", "value": 2.9, "unit": "µM"}, {"measurement": "TGI", "setting": "HCT-116 colon", "value": "> 10", "unit": "µM"}, {"measurement": "GI50", "setting": "K-562 leukemia", "value": 2.98, "unit": "µM"}, {"measurement": "TGI", "setting": "K-562 leukemia", "value": "> 10", "unit": "µM"}, {"measurement": "GI50", "setting": "KM12 colon", "value": 7.97, "unit": "µM"}, {"measurement": "TGI", "setting": "KM12 colon", "value": "> 10", "unit": "µM"}, {"measurement": "GI50", "setting": "SF-268 CNS", "value": 6.56, "unit": "µM"}, {"measurement": "TGI", "setting": "SF-268 CNS", "value": "> 10", "unit": "µM"}, {"measurement": "GI50", "setting": "SN12C renal", "value": 3.9, "unit": "µM"}, {"measurement": "TGI", "setting": "SN12C renal", "value": "> 10", "unit": "µM"}, {"measurement": "GI50", "setting": "SNB-75 CNS", "value": 4.05, "unit": "µM"}, {"measurement": "TGI", "setting": "SNB-75 CNS", "value": "> 10", "unit": "µM"}, {"measurement": "GI50", "setting": "SR leukemia", "value": 4.64, "unit": "µM"}, {"measurement": "TGI", "setting": "SR leukemia", "value": "> 10", "unit": "µM"}, {"measurement": "GI50", "setting": "UACC-62 melanoma", "value": 2.42, "unit": "µM"}, {"measurement": "TGI", "setting": "UACC-62 melanoma", "value": 9.64, "unit": "µM"}, {"measurement": "GI50", "setting": "UO-31 renal", "value": 1.86, "unit": "µM"}, {"measurement": "TGI", "setting": "UO-31 renal", "value": 9.66, "unit": "µM"}]}
{"compound": "Cc1cn(C2CC(N)C(C(=O)NCC(=O)O)O2)c(=O)[nH]c1=O", "note": "(stereo unspecified)", "values": [{"measurement": "TGI", "setting": "CCRF-CEM leukemia", "value": "> 100", "unit": "µM"}, {"measurement": "TGI", "setting": "HCT-116 colon", "value": "> 100", "unit": "µM"}, {"measurement": "TGI", "setting": "K-562 leukemia", "value": "> 100", "unit": "µM"}, {"measurement": "TGI", "setting": "KM12 colon", "value": "> 100", "unit": "µM"}, {"measurement": "TGI", "setting": "SF-268 CNS", "value": "> 100", "unit": "µM"}, {"measurement": "TGI", "setting": "SN12C renal", "value": "> 100", "unit": "µM"}, {"measurement": "TGI", "setting": "SNB-75 CNS", "value": "> 100", "unit": "µM"}, {"measurement": "TGI", "setting": "SR leukemia", "value": "> 100", "unit": "µM"}, {"measurement": "TGI", "setting": "UACC-62 melanoma", "value": "> 100", "unit": "µM"}, {"measurement": "TGI", "setting": "UO-31 renal", "value": "> 100", "unit": "µM"}]}
{"compound": "O=[N+]([O-])c1ccccc1S(=O)(=O)c1ccccc1", "values": [{"measurement": "TGI", "setting": "CCRF-CEM leukemia", "value": "> 100", "unit": "µM"}, {"measurement": "TGI", "setting": "HCT-116 colon", "value": "> 100", "unit": "µM"}, {"measurement": "TGI", "setting": "K-562 leukemia", "value": "> 100", "unit": "µM"}, {"measurement": "TGI", "setting": "KM12 colon", "value": "> 100", "unit": "µM"}, {"measurement": "TGI", "setting": "SF-268 CNS", "value": "> 100", "unit": "µM"}, {"measurement": "TGI", "setting": "SN12C renal", "value": "> 100", "unit": "µM"}, {"measurement": "TGI", "setting": "SNB-75 CNS", "value": "> 100", "unit": "µM"}, {"measurement": "TGI", "setting": "SR leukemia", "value": "> 100", "unit": "µM"}, {"measurement": "TGI", "setting": "UACC-62 melanoma", "value": "> 100", "unit": "µM"}, {"measurement": "TGI", "setting": "UO-31 renal", "value": 90.6, "unit": "µM"}]}
{"compound": "CC(=O)OCC1OC(OCCCCCCO)C(OC(C)=O)C(OC(C)=O)C1OC(C)=O", "note": "(stereo unspecified)", "values": [{"measurement": "TGI", "setting": "CCRF-CEM leukemia", "value": "> 100", "unit": "µM"}, {"measurement": "TGI", "setting": "HCT-116 colon", "value": "> 100", "unit": "µM"}, {"measurement": "TGI", "setting": "K-562 leukemia", "value": "> 100", "unit": "µM"}, {"measurement": "TGI", "setting": "KM12 colon", "value": "> 100", "unit": "µM"}, {"measurement": "TGI", "setting": "SF-268 CNS", "value": "> 100", "unit": "µM"}, {"measurement": "TGI", "setting": "SN12C renal", "value": "> 100", "unit": "µM"}, {"measurement": "TGI", "setting": "SNB-75 CNS", "value": "> 100", "unit": "µM"}, {"measurement": "TGI", "setting": "SR leukemia", "value": "> 100", "unit": "µM"}, {"measurement": "TGI", "setting": "UACC-62 melanoma", "value": "> 100", "unit": "µM"}, {"measurement": "TGI", "setting": "UO-31 renal", "value": "> 100", "unit": "µM"}]}
{"compound": "CC1(C)C(=O)c2ccccc2OC1N1CCN(C2Oc3ccccc3C(=O)C2(C)C)CC1", "note": "(stereo unspecified)", "values": [{"measurement": "TGI", "setting": "CCRF-CEM leukemia", "value": "> 100", "unit": "µM"}, {"measurement": "TGI", "setting": "HCT-116 colon", "value": "> 100", "unit": "µM"}, {"measurement": "TGI", "setting": "K-562 leukemia", "value": "> 100", "unit": "µM"}, {"measurement": "TGI", "setting": "KM12 colon", "value": "> 100", "unit": "µM"}, {"measurement": "TGI", "setting": "SF-268 CNS", "value": "> 100", "unit": "µM"}, {"measurement": "TGI", "setting": "SN12C renal", "value": "> 100", "unit": "µM"}, {"measurement": "TGI", "setting": "SNB-75 CNS", "value": "> 100", "unit": "µM"}, {"measurement": "TGI", "setting": "SR leukemia", "value": "> 100", "unit": "µM"}, {"measurement": "TGI", "setting": "UACC-62 melanoma", "value": "> 100", "unit": "µM"}, {"measurement": "TGI", "setting": "UO-31 renal", "value": "> 100", "unit": "µM"}]}
{"compound": "COc1ccc(-c2ccc(-c3ccc(C(=N)N)nc3)s2)cc1Cl", "values": [{"measurement": "GI50", "setting": "KM12 colon", "value": 1.81, "unit": "µM"}, {"measurement": "TGI", "setting": "KM12 colon", "value": 3.32, "unit": "µM"}, {"measurement": "GI50", "setting": "SNB-75 CNS", "value": 1.43, "unit": "µM"}, {"measurement": "TGI", "setting": "SNB-75 CNS", "value": 2.8, "unit": "µM"}, {"measurement": "GI50", "setting": "UO-31 renal", "value": 1.55, "unit": "µM"}, {"measurement": "TGI", "setting": "UO-31 renal", "value": 2.91, "unit": "µM"}]}
